Test results published in ChEMBL document CHEMBL1909046, “DrugMatrix in vitro pharmacology data”.

Experiments:
[1] = biological target: 5-hydroxytryptamine receptor 2B (Homo sapiens, UniProt P41595); type: cell membranes, CHO-K1, Membrane; conditions: cho-k1; also: in other assays of this panel Not Active means under 50% inhibition at 10 µM
[2] = DRUGMATRIX: Sigma2 radioligand binding (ligand: [3H] Ifenprodil); type: cell membranes, Rattus norvegicus, Wistar, Brain, Membrane; conditions: Not Active = under 50% inhibition at 10 µM
[3] = DRUGMATRIX: Glutamate, Kainate radioligand binding (ligand: [3H] Kainic acid); type: cell membranes, Rattus norvegicus, Wistar, Brain, Membrane; conditions: Not Active = under 50% inhibition at 10 µM
[4] = biological target: Kappa-type opioid receptor (Homo sapiens, UniProt P41145); test: DRUGMATRIX: Opiate kappa (OP2, KOP) radioligand binding (ligand: [3H] Diprenorphine); type: cell membranes, HEK293, Membrane; conditions: hek293; Not Active = under 50% inhibition at 10 µM
Adenosine receptor A1 = biological target: T1, Adenosine receptor A1 (Homo sapiens, UniProt P30542); type: cell membranes, CHO, Membrane; conditions: cho;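 also: radioligand binding assay at the adenosine A1 receptor, with DPCPX serving as the labelled ligand; in other assays of this panel Not Active means under 50% inhibition at 10 µM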
T1 sequence (P30542 whole entry): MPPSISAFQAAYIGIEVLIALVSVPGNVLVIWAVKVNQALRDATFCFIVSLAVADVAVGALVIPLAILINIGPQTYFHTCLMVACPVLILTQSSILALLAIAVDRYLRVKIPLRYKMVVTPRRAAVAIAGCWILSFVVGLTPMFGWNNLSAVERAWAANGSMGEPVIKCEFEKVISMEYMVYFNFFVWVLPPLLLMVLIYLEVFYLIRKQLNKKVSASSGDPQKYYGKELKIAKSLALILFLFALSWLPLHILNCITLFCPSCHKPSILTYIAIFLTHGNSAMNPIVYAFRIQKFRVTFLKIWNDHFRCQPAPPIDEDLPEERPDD

Cytochrome P450 2C9 = Cytochrome P450 2C9 (Homo sapiens, UniProt P11712); conditions: bti-tn-5b1-4; also: in other assays of this panel Not Active means under 50% inhibition at 10 µM
Sequence of Cytochrome P450 2C9 (P11712 whole entry): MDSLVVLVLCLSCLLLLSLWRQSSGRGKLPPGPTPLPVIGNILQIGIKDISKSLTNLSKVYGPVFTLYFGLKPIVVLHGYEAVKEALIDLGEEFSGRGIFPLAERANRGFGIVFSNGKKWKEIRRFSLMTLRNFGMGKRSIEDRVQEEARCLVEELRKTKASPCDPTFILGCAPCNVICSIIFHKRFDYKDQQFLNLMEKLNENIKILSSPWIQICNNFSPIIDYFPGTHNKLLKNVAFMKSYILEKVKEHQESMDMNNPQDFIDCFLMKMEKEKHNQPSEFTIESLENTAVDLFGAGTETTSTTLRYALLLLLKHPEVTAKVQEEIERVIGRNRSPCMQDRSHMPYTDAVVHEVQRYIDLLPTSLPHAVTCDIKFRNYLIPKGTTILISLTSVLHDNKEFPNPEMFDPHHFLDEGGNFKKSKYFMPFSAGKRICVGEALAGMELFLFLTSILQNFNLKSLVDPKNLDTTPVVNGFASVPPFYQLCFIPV

Sequence of 5-hydroxytryptamine receptor 2B (P41595 whole entry): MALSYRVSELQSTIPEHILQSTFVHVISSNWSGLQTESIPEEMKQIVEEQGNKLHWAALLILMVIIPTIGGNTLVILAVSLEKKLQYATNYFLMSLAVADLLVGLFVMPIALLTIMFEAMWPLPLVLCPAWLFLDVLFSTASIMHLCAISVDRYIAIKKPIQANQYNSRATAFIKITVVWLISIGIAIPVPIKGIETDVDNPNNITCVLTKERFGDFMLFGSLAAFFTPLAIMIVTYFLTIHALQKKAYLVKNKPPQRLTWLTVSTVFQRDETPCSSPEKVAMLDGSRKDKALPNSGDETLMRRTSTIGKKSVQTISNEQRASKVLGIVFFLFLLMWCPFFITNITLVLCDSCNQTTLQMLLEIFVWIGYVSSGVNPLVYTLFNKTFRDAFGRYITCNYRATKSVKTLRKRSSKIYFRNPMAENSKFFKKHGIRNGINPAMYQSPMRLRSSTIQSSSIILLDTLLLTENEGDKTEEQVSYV
Sequence of Kappa-type opioid receptor (P41145 whole entry): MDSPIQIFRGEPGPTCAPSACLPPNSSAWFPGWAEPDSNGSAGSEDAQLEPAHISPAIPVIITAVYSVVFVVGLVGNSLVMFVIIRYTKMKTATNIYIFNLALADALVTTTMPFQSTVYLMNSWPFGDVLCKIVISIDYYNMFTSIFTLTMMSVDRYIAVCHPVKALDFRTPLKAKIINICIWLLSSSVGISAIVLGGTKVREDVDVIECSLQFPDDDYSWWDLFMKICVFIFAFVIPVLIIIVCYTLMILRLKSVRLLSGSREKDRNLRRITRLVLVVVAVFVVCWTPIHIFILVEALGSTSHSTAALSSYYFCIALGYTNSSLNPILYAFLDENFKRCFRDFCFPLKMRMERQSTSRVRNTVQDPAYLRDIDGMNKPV

CCOc1nc2cccc(C(=O)O)c2n1Cc1ccc(-c2ccccc2-c2nnn[nH]2)cc1
Not Active: IC50 [1] | IC50 [2] | Ki [2] | IC50 [3] | Ki [3] | IC50 [4] | IC50 (Adenosine receptor A1)

CN(C)CCC=C1c2ccccc2CCc2ccccc21 [AMITRIPTYLINE]
Not Active: IC50 [2] | Ki [2] | IC50 [3] | Ki [3] | IC50 [4] | IC50 (Adenosine receptor A1) | IC50 (Cytochrome P450 2C9) | Ki (Cytochrome P450 2C9)

Cn1c(=O)c2c(ncn2C)n(C)c1=O [CAFFEINE]
Not Active: IC50 [1] | IC50 [2] | Ki [2] | IC50 [3] | Ki [3] | IC50 [4] | IC50 (Cytochrome P450 2C9) | Ki (Cytochrome P450 2C9)

C[N+](C)(C)C[C@H](O)CC(=O)[O-] [LEVOCARNITINE]
Not Active: IC50 [1] | IC50 [2] | Ki [2] | IC50 [3] | Ki [3] | IC50 (Adenosine receptor A1) | IC50 (Cytochrome P450 2C9) | Ki (Cytochrome P450 2C9)

C[C@]12CC[C@H]3[C@@H](CCC4=CC(=O)CC[C@@H]43)[C@@H]1CC[C@@H]2O [NANDROLONE]
Not Active: IC50 [1] | IC50 [2] | Ki [2] | IC50 [3] | Ki [3] | IC50 (Adenosine receptor A1) | IC50 (Cytochrome P450 2C9) | Ki (Cytochrome P450 2C9)

CN(C)C(=O)Oc1cccc([N+](C)(C)C)c1.[Br-] [NEOSTIGMINE BROMIDE]
Not Active: IC50 [1] | IC50 [2] | Ki [2] | IC50 [3] | Ki [3] | IC50 (Adenosine receptor A1) | IC50 (Cytochrome P450 2C9) | Ki (Cytochrome P450 2C9)

C[C@@H]1O[C@@H](O[C@H]2C[C@@H](O)[C@]3(CO)[C@H]4[C@H](O)C[C@]5(C)[C@@H](C6=CC(=O)OC6)CC[C@]5(O)[C@@H]4CC[C@]3(O)C2)[C@H](O)[C@H](O)[C@H]1O [OUABAIN]
Not Active: IC50 [1] | IC50 [2] | Ki [2] | IC50 [3] | Ki [3] | IC50 (Adenosine receptor A1) | IC50 (Cytochrome P450 2C9) | Ki (Cytochrome P450 2C9)

NNCCc1ccccc1 [PHENELZINE]
Not Active: IC50 [1] | IC50 [2] | Ki [2] | IC50 [3] | Ki [3] | IC50 (Adenosine receptor A1)

COBALTOUS CHLORIDE
Not Active: IC50 [1] | Ki [1] | IC50 [2] | Ki [2] | IC50 [3] | Ki [3] | IC50 (Adenosine receptor A1) | Ki (Adenosine receptor A1) | IC50 (Cytochrome P450 2C9) | Ki (Cytochrome P450 2C9)

COLISTIN
Not Active: IC50 [1] | Ki [1] | IC50 [2] | Ki [2] | IC50 [3] | Ki [3] | IC50 (Adenosine receptor A1) | Ki (Adenosine receptor A1) | IC50 (Cytochrome P450 2C9) | Ki (Cytochrome P450 2C9)
